The values below come from a melting point compilation (Tetko et al.; mined from patent text by program, amines drawn as free bases though some values may be those of a salt).

For orientation: melting point means the temperature of the solid-liquid transition. Take `CCCc1nc(C)cc(=O)n1CCOc1ccc(CC2SC(=O)NC2=O)cc1` (stereo unspecified): the melting point is 144 to 146 °C.

`CC(C)(C)OC(=O)N[C@@H](Cc1ccc(NC(=O)c2csc(NC(=O)NCc3ccccc3)n2)cc1)C(=O)O` returned a melting point of 231 °C. The compound `COc1cc2c(cc1-c1cccnc1)-c1c(-c3cncs3)c3c(n1CC2)C(=O)N(C(C)(C)C)CCCC3` showed a melting point of 227 to 229 °C. Then `COc1ccc(-c2c(Cl)c(CCl)nc3sc4c(c23)CCN(C(=O)c2ccccc2)C4)cc1OC`, with 208 to 209 °C. The value for `Cn1c(C(=O)O)cc2c(OCc3ccccc3)cccc21` was 217 °C. Then `CCCCCCCCCCCCCCCC(=O)OCCCCN`, with 59 to 61 °C; and `CCCCS(=O)(=O)Nc1ccccc1Oc1ccc2ncccc2c1`, with 131 to 133 °C.

With `COC1=C(OC)C(=O)C(CCCCCCCCCCCCCCCCCCCCCC(=O)O)=C(C)C1=O`, the melting point fell in the range of 86 to 87 °C. Compound `CC12CC(F)C3(Br)C(CCC4=CC(=O)CCC43C)C1CCC2=O` (stereo unspecified) showed a melting point of 165 to 166 °C. Then `CC(=O)C1CCC2C3CCC4=CC(=O)CCC4(CO)C3CCC12C` (stereo unspecified), with 165 to 168 °C; and `c1ccc2cc(-c3scc4c3OCCO4)ccc2c1`, with 208 to 211 °C; and `O=Cc1cccc2c1nc(-c1c(F)cccc1F)n2Cc1c(F)cccc1F`, with 151 to 153 °C. In turn, `C#Cc1c[nH]c2ncnc(N3CCCCC3)c12` yielded a melting point of 179 to 181 °C. The value for `Cc1cc(NC2=NCCN2)n(-c2ccccc2C)n1` was 168 to 169 °C. The value for `NCCN1C(=O)CN(c2ccc(Cl)cc2)C1=O` was 142 to 145 °C; that for `O=C(NC(Cc1ccccc1)C(=O)O)OCc1ccc(-c2ccccc2)cc1` (stereo unspecified) was 142 °C. The value for `CC(CCC(=O)O)c1ccc2c(c1)C(=O)c1ccccc1CO2` (stereo unspecified) was 120 to 124 °C; that for `CCOC(=O)c1ccc(N2CCN(Cc3cnc4c(c3)NC(=O)[C@@H]3CCCN43)CC2)cc1` was 242 °C. `CN(C(=S)c1ccccn1)c1cccc(F)c1`: the melting point lay in the range of 100 to 103 °C. `Cc1ccnc(NC(c2ccc([N+](=O)[O-])cc2)c2ccccc2O)n1` (stereo unspecified) showed a melting point of 136 to 145 °C. For the compound `COC(=O)Cc1cccc(NC(=O)NC2c3cc(C#N)ccc3OC(C)(C)C2O)c1` (stereo unspecified), the melting point was 72 to 75 °C. The value for `Cc1cc2c(C=O)c3ccccc3c(C=O)c2cc1C` was 203 to 204 °C. With `COCc1c(C=NO)ncc2[nH]c3cccc(Cc4ccccc4Cl)c3c12`, the melting point was 209 to 212 °C.

In turn, `CCOC(=O)c1sc(Cl)nc1-c1cccc(C)c1` came in with a melting point of 41 to 42 °C. Then `Cc1oc2c(Br)cc(C=O)cc2c1C`, with 126 °C. Then `O=[N+]([O-])c1ccc(C=Cc2nc(Nc3ccccc3)c3ccccc3n2)o1`, with 183 °C; and `CC(C)c1csc(/C=C/c2cccc(N)c2)n1`, with 62 to 63 °C. The value for `CCc1cc(C(=O)O)ccc1C(N)C(=O)O` (stereo unspecified) was 189 to 193 °C.

For the compound `Cn1c(-c2ccc(N3CCOCC3)cc2)cnc1[C@H](Cc1ccccn1)N(C=O)c1nc2cc(Cl)ccc2s1`, the melting point fell in the range of 96 to 99 °C. Then `O=C(O)CCCc1cc2nc(Cl)ccc2n1S(=O)(=O)c1ccc2oncc2c1`, with 226 °C. The value for `CCOc1nc(-c2cc(NC(=O)c3ccc(C)c(F)c3)ccc2C)c2c(n1)N(c1c(F)cccc1F)C(=O)NC2` was 257 to 262 °C; that for `N#Cc1cccc2c1NC(=O)C2c1ncnc2c1cnn2C1CCCCC1` (stereo unspecified) was greater than 300 °C; that for `CCCc1c(OCCCOc2ccc(-c3c[nH]c(SCc4ccccc4)n3)c(OC)c2CCC)ccc2c1OC(C(=O)O)CC2` (stereo unspecified) was 92 to 97 °C. In turn, `NNc1nc(Cl)nc2ccc(Cl)cc12` yielded a melting point greater than 280 °C. The value for `O=C(O)CNC(=O)Nc1cccc(C(=O)OCc2ccccc2)c1` was 168 °C; that for `C1=Cc2cc3ccccc3cc2C1` was 160 to 163 °C. The value for `COc1ccc(-c2sc3ccccc3c2Oc2ccc(OCc3ccccc3)cc2)cc1F` was 122 to 123 °C; that for `COC(=O)N(Cc1nc(-c2ccccc2)c(-c2ccccc2)o1)c1cccc(OCC(=O)O)c1` was 153 to 155 °C; that for `CCOc1noc(C(=O)OCc2ccccc2)c1CC(NC(=O)OC(C)(C)C)C(=O)OCc1ccccc1` (racemic) was 142 to 144 °C. In the case of `O=S(=O)(Cl)c1ccc2cc(Oc3c(Cl)cc(C(F)(F)F)cc3Cl)ccc2c1`, the melting point worked out at 140 °C. The value for `CCCCc1nn(-c2cccc([N+](=O)[O-])c2)c(=O)n1Cc1ccc(-c2ccccc2S(=O)(=O)NC(C)(C)C)cc1` was 164 to 165 °C; that for `COc1ccc2c(c1)c1c3c(c(-c4ccccc4Cl)cc1n2CCC(N)=O)C(=O)NC3=O` was 283 to 286 °C. The value for `O=[N+]([O-])c1ccccc1N=Nc1ccccc1` was 139 to 141 °C.

With `Cc1cc(C)n(-c2cc(F)c(C#N)cc2F)n1`, the melting point came out at 122 °C. The value for `Cn1cnnc1C(c1ccc(Cl)cc1)c1ccc2c(c1)c(-c1cccc(Cl)c1)nc1nnnn12` (stereo unspecified) was 217 °C; that for `CC(C)(C(=O)c1ccc(C(=O)c2ccc(C(=O)C(C)(C)N3CCOCC3)cc2)cc1)N1CCOCC1` was 145 to 147 °C; that for `CCOc1ccccc1NC(=O)C1Sc2ccc(Cl)cc2N(C)C1=O` (stereo unspecified) was 124 to 126 °C. Then `O=C(O)c1ccc(-c2cc3ccccc3[nH]c2=S)cc1`, with greater than 300 °C; and `OCc1c(C(F)(F)F)n(Cc2ccccc2)c2ccccc12`, with 96 °C; and `OC(CNC1=NCCN1)c1ccccc1` (stereo unspecified), with 147 to 149 °C.

As to `COc1c(N2C[C@@H](N)[C@@H](C3CC3)C2)c(F)cc2c(=O)c(C(=O)O)cn([C@@H]3C[C@@H]3F)c12`, the melting point was in the range of 211 to 214 °C.

`O=C(c1ccc(Cl)cn1)c1ccc(Cl)cn1` returned a melting point of 164 to 167 °C. Then `O=S1(=O)C=Cc2cc(Br)ccc2O1`, with 140 to 142 °C. As for `O=C(O)c1cc(C(F)(F)F)cc(Cl)c1-n1cnc(C(F)(F)C(F)(F)F)cc1=O`, the melting point is 189 to 190 °C. In turn, `O=C(O)c1ccccc1Oc1cc(Cl)c(Cl)cc1NS(=O)(=O)c1ccc(Cl)cc1` had a melting point of 220 to 221 °C. Consider `COc1ccc(N2CCOCC2)c2sc(-c3nc4c([nH]3)COCC4)nc12`, for which the melting point is 203 to 204 °C. The value for `CN(C)/C=C1/C(=O)N(C(=O)OC(C)(C)C)C2C3=C(CCCC3(C)C)CC12` (stereo unspecified) was 170 to 172 °C; that for `Oc1cccc([C@H]2CC[C@@H](c3ccccc3)N2)c1` (racemic) was 151 °C; that for `O=C(OCc1ccccc1)c1cc2c3ccccc3n(Cc3ccccc3)c2cn1` was 169 to 170 °C. Then `COc1ccc([C@H]2CCc3ccccc3[C@@H]2C#N)cc1` (racemic), with 126 to 131 °C.

`CCCCCCCCCCCCCCCCC[C@@H](C[C@@H]1OC(=O)[C@H]1CC)OC(=O)[C@H](CC(C)C)NC=O` returned a melting point of 60 to 61 °C.
